The values below come from patent publication US5081245A, “Carboxylic acid derivatives” (Takeda Chemical Industries, Ltd., priority 1988, dated 1992).

The subject of series [1] is human oral epidermoid carcinoma KB cells. Kind of series: Growth inhibitory effect against KB cells (MTT, 72 h). The following applies: absorbance 590 nm. Type of series: cell-based. The procedure: Growth Inhibitory Effect (IC50) of Compounds Obtained in Examples Against KB Cells Human oral epidermoid carcinoma KB cells (1×10^4 cells/ml) were transferred to a 96-well microwell plate at 0.1 ml per well and subjected to stationary culture at 37° C. with 5% CO2 for 24 hours. To the resulting culture was added a 10% MEM (Nissui Junyaku) solution of a compound of an Example, followed by stationary culture at 37° C. with 5% CO2 for 72 hours. The culture broth was then removed using a micropipette. 0.1 ml of a 10% minimal essential medium solution containing 3-(4,5-dimethylthiazol-2-yl)-2,5-diphenyl-2H-tetrazolium bromide (Dojin Kagaku) (1.0 mg/ml) was added, followed by cultivation at 37° C. for 4 hours. 0.1 ml of a 10% sodium dodecylsulfate (Wako Pure Chemical) was then added, followed by cultivation at 37° C. for 24 hours.

The subject of another series is CDF-1 mice. Kind of series: Acute toxicity test in mice, single intraperitoneal administration. Type of series: in vivo. The conditions noted are these: single i.p., female CDF-1 mice, 7 days observation. The procedure: Acute Toxicity Test with Compounds of Example in Mice
0.2 ml of a solution of a compound of the Example in physiological saline was intraperitoneally administered once to female CDF-1 mice (5 weeks in age, 5 animals per group). Observation was conducted for 7 days following the administration.

The test system of series [2] is Sarcoma 180 cells. Kind of series: Antitumor activity on Sarcoma 180 cells in ICR mice, intraperitoneal. The following applies: 0.1 mg/mouse, 8 times, tumor weight after 21 days. Type of series: in vivo. The procedure: (§1) Antitumor Activity of Compounds Obtained in Examples on Sarcoma 180 Cells
(2) Sarcoma 180 cells were subcutaneously transplanted to the side of the back of ICR mice (5 mice per group) at 1×10^6 cells per animal. 8, 9, 12, 13, 15, 16, 19 and 20 days after the transplantation (a total of 8 times), a compound of an Example, dissolved in physiological saline, was intraperitoneally administered (0.1 mg/mouse). After 21 days, the tumor tissue was excised and weighed.

Series [3] relates to Sarcoma 180 cells. The series can be described thus: Antitumor activity on Sarcoma 180 cells in ICR mice, oral. The conditions noted are these: 0.3 mg/mouse, 9 times, tumor weight after 21 days. Type of series: in vivo. The method, then:
as §1
(1) Sarcoma 180 cells were subcutaneously transplanted to the side of the back of ICR mice (5 mice per group) at 1×10^6 cells per animal. 8, 9, 10, 13, 14, 15, 16, 17 and 20 days after the transplantation (a total of 9 times), the compound of Example 1, dissolved in physiological saline, was orally administered (0.3 mg/mouse). After 21 days, the tumor tissue was excised and weighed.

For series [4] the following is noted: cited from earlier work.

Converted amounts (≈) assume the structure as drawn.

`CCCCCCCCCCCCCCCCCCOCC(COCCOCC[n+]1ccn(CC(=O)[O-])c1)OCCCCCC` (stereo not shown) [Example 6, 2-[3-[2-[2-[2-hexyloxy-3-octadecyloxypropoxy]-ethoxy]ethyl]imidazolio-1-yl]acetate] displayed an IC50 in series [1] of 2.5 µg/mL (≈ 4 µM). Besides, the “Number of mice that died/number of subject mice” value in the series on CDF-1 mice (50 mg/kg) is 0/5.

In series [1], `CCCCCCCCCCCCCCCCCCOCC(COCCOCC[n+]1cccc(CCC(=O)[O-])c1)Oc1ncccn1` (stereo not shown) [Example 12, 3-[1-[2-[2-[3-octadecyloxy-2-(pyrimidin-2-yloxy)-propoxy]ethoxy]ethyl]pyridinio-3-yl]propionate] returned an IC50 of 0.63 µg/mL (≈ 0.978 µM). The “Number of mice that died/number of subject mice” value in the series with CDF-1 mice (100 mg/kg) is recorded as 0/5. Moreover, the “Growth inhibition ratio (1-T/C %)” value in the series on Sarcoma 180 cells [2] came to 81%.

`CCCCCCCCCCCCCCCCCCOCC(COCCOCC[n+]1ccn(CCCC(=O)[O-])c1)Oc1ncccn1` (stereo not shown) [Example 8, 4-[3-[2-[2-[3-octadecyloxy-2-(pyrimidin-2-yloxy)-propoxy]ethoxy]ethyl]imidazolio-1-yl]butyrate] had an IC50 in series [1] of 1.25 µg/mL (≈ 1.93 µM). Besides, in the series with CDF-1 mice (100 mg/kg), the “Number of mice that died/number of subject mice” value is given as 0/5. Besides, the “Growth inhibition ratio (1-T/C %)” value in the series with Sarcoma 180 cells [2] was found to be 66%.

On to `CCCCCCCCCCCCCCCCCCOCC(COCCOCC[n+]1ccn(CCCCCCCCC(=O)[O-])c1)Oc1ncccn1` (stereo not shown) [Example 7], for which the IC50 in series [1] was found to be 0.16 µg/mL (≈ 0.223 µM).

As for `CCCCCCCCCCCCCCCCCCOCC(COCCOCCOCC[n+]1ccn(CCCC(=O)[O-])c1)Oc1ncccn1` (stereo not shown) [Example 21, 4-[3-[2-[2-[2-[3-octadecyloxy-2-(pyrimidin-2-yloxy)propoxy]ethoxy]ethoxy]ethyl]imidazolio-1-yl]-butyrate], the IC50 in series [1] was determined as 0.63 µg/mL (≈ 0.912 µM). Also, the “Number of mice that died/number of subject mice” value in the series on CDF-1 mice (100 mg/kg) was 0/5.

`O=C([O-])CCCn1cc[n+](CCOCCOCC(COCCCCCCCCCCCCC2CCCCC2)Oc2ncccn2)c1` (stereo not shown) [Example 24, 4-[3-[2-[2-[3-(12-cyclohexyldodecyloxy)-2-(pyrimidin-2-yloxy)propoxy]ethoxy]ethyl]imidazolio-1-yl]butyrate] had a 50% inhibitory concentration (IC50) in series [1] of 0.32 µg/mL (≈ 0.496 µM).

`CCCCCCCCCCCCCCCCCCOCC(COCCOCC[n+]1ccn(CCCCC2CCC(C(=O)[O-])CC2)c1)Oc1ncccn1` (stereo not shown) [Example 11, 4-[4-[3-[2-[2-[3-octadecyloxy-2-(pyrimidin-2-yloxy)propoxy]ethoxy]ethyl]imidazolio-1-yl]butyl]-cyclohexylcarboxylate]: the 50% inhibitory concentration (IC50) in series [1] was 0.32 µg/mL (≈ 0.431 µM).

For the compound `CCCCCCCCCCCCCCCCCCOCC(COCCOCC[N+](C)(C)CCCCCC(=O)[O-])OCC(C)=O` (stereo not shown) [Example 5, 6-[N,N-dimethyl-N-[2-[2-[3-octadecyloxy-2-(2-oxopropoxy)propoxy]ethoxy]ethyl]ammonio]hexanoate], half-maximal inhibition in series [1] (IC50) required 2.5 µg/mL (≈ 3.97 µM). Moreover, in the series on CDF-1 mice (50 mg/kg), the “Number of mice that died/number of subject mice” value is 0/5.

In series [1], `CCCCCCCCCCCCCCCCCCOCC(COCCOCC[n+]1ccn(CCCCCC(=O)[O-])c1)Oc1ncccn1` (stereo not shown) [Example 1, 6-[3-[2-[2-[3-octadecyloxy-2-(pyrimidin-2-yloxy)-propoxy]ethoxy]ethyl]imidazolio-1yl]hexanoate] gave an IC50 of 0.16 µg/mL (≈ 0.237 µM). Moreover, the “Number of mice that died/number of subject mice” value in the series on CDF-1 mice (50 mg/kg) is listed as 0/5. Further, the “Growth inhibition ratio (1-T/C %)” value with Sarcoma 180 cells [3] was 65%.

`CCCCCCCCCCCCCCCCCCOCC(COCCOCC[n+]1ccn(CCCCc2ccc(C(=O)[O-])cc2)c1)Oc1ncccn1` (stereo not shown) [Example 10, 4-[4-[3-[2-[2-[3-octadecyloxy-2-(pyrimidin-2-yloxy)-propoxy]ethoxy]ethyl]imidazolio-1-yl]butyl]benzoate] came in with an IC50 in series [1] of 0.32 µg/mL (≈ 0.434 µM). Besides, the “Number of mice that died/number of subject mice” value in the series on CDF-1 mice (50 mg/kg) was 0/5.

In series [1], `CCCCCCCCCCCCCCCCCCOCC(COCCOCC[n+]1ccn(CCC(C)(C)C(=O)OCC)c1)Oc1ncccn1` (stereo not shown) [Example 15, 1-(3-ethoxycarbonyl-3-methyl)butyl-3-[2-[2-[3-octadecyloxy-2-(pyrimidin-2-yloxy)propoxy]-ethoxy]ethylimidazolium chloride] had a half-inhibitory concentration (IC50) of 0.63 µg/mL.

Compound `O=C([O-])CCCCCn1cc[n+](CCOCCOCC(COCCCCCCCCCCCCC2CCCCC2)Oc2ncccn2)c1` (stereo not shown) [Example 25, 6-[3-[2-[2-[3-(12-cyclohexyldodecyloxy)-2-(pyrimidin-2-yloxy)propoxy]ethoxy]ethyl]imidazolio-1-yl]hexanoate] had an IC50 in series [1] of 0.16 µg/mL (≈ 0.238 µM). Compared with the last compound, the IC50 is about 3.9-fold lower.

In turn, `CCCCCCCCCCCCCCCCCCOCC(COCCOCC[N+]1(CCCCCC(=O)[O-])CCCC1)Oc1ncccn1` (stereo not shown) [Example 17, 6-[1-[2-[2-[3-octadecyloxy-2-(pyrimidin-2-yloxy)-propoxy]ethoxy]ethyl]pyrrolidinio-1-yl]hexanoate] gave an IC50 in series [1] of 0.32 µg/mL (≈ 0.472 µM).

As for `CCCCCCCCCCCCCCCCCCOCC(COCCCC[n+]1cccc(CCCCC(=O)[O-])c1)Oc1ncccn1` (stereo not shown) [Example 23, 5-[1-[4-[3-octadecyloxy-2-(pyrimidin-2-yloxy)-propoxy]butyl]pyridinio-3-yl]pentanoate], in series [1], the IC50 was found to be 0.32 µg/mL (≈ 0.488 µM).

In series [1], `CCCCCCCCCCCCCCCCCCOCC(COCCOCC[n+]1ccn(CCCCCC(=O)[O-])c1)OCC(C)=O` (stereo not shown) [Example 3] showed an IC50 of 0.32 µg/mL (≈ 0.49 µM). The “Number of mice that died/number of subject mice” value in the series on CDF-1 mice (50 mg/kg) is reported as 0/5.

In series [1], `CCCCCCCCCCCCCCCCCCOCC(COCCCC[n+]1cccc(CCC(=O)[O-])c1)Oc1ncccn1` (stereo not shown) [Example 22, 3-[1-[4-[3-octadecyloxy-2-(pyrimidin-2-yloxy)-propoxy]butyl]pyridinio-3-yl]propionate] came in with an IC50 of 0.63 µg/mL (≈ 1 µM).

`CCCCCCCCCCCCCCCCCCOCC(COCCOCC[n+]1ccn(CCCCCC(=O)OC)c1)Oc1ncccn1.[Cl-]` (stereo not shown) [Example 14, 1-(5-methoxycarbonylpentyl)-3-[2-[2-[3-octadecyloxy-2-(pyrimidin-2-yloxy)propoxy]ethoxy]-ethyl]imidazolium chloride] came in with an IC50 in series [1] of 0.32 µg/mL. This IC50 lies about 2-fold lower than the previous one.

In turn, `CCCCCCCCCCCCCCCCCCOCC(COCCOCC[n+]1ccn(CCC(C)(C)C(=O)[O-])c1)Oc1ncccn1` (stereo not shown) [Example 16, 2,2-dimethyl-4-[3-[2-[2-[3-octadecyloxy-2-(pyrimidin-2-yloxy)propoxy]ethoxy]ethyl]imidazolio-1-yl]butyrate] gave an IC50 in series [1] of 0.63 µg/mL (≈ 0.933 µM).

For the compound `CCCCCCCCCCCCCCCCCCOCC(COCCOCCOCC[n+]1ccn(CCCCCC(=O)[O-])c1)Oc1ncccn1` (stereo not shown) [Example 20, 6-[3-[2-[2-[2-[3-octadecyloxy-2-(pyrimidin-2-yloxy)propoxy]ethoxy]ethoxy]ethyl]imidazolio-1-yl]-hexanoate], the IC50 in series [1] amounted to 0.32 µg/mL (≈ 0.445 µM). Further, the “Number of mice that died/number of subject mice” value with CDF-1 mice (100 mg/kg) was 0/5.

`CCCCCCCCCCCCCCCCCCOCC(COCCOCC[N+](C)(C)CCCCCC(=O)[O-])Oc1ncccn1` (stereo not shown) [Example 9, 6-[N,N-dimethyl-N-[2-[2-[3-octadecyloxy-2-(pyrimidin-2-yloxy)propoxy]ethoxy]ethyl]ammonio]-hexanoate]: the IC50 in series [1] turned out to be 1.25 µg/mL (≈ 1.92 µM). In addition, the “Number of mice that died/number of subject mice” value with CDF-1 mice (100 mg/kg) is 0/5.

Regarding `CCCCCCCCCCCCCCCCCCOCC(COCCOCC[n+]1cccc(CCCOC(=O)CCC(=O)[O-])c1)Oc1ncccn1` (stereo not shown) [Example 19, 3-[1-[2-[2-[3-octadecyloxy-2-(pyrimidin-2-yloxy)-propoxy]ethoxy]ethyl]pyridinio-3-yl]propyl succinate], in series [1], the IC50 was 0.63 µg/mL.

Consider `CCCCCCCCCCCCCCCCCCOCC(COP(=O)([O-])OCC[N+](C)(C)C)OC` (stereo not shown) [phospholipid represented by formula (II)], for which the antitumor activities entry in series [4] (Anticancer Research, 1, 345 (1981)) was “possess antitumor activities”. In addition, the adverse effects entry in series [4] (clinical trial limitation, similarity to PAF) was “various adverse effects such as bronchostenosis, platelet aggregation and hypotension”.

In the case of `CCCCCCCCCCCCCCCCCCOCC(COCCOCC[n+]1ccn(CCCOC(=O)CCC(=O)[O-])c1)Oc1ncccn1` (stereo not shown) [Example 18, 3-[3-[2-[2-[3-octadecyloxy-2-(pyrimidin-2-yloxy)-propoxy]ethoxy]ethyl]imidazolio-1-yl]propyl succinate], the IC50 in series [1] came to 0.32 µg/mL.

For orientation: IC50 means the concentration at which inhibition is half-maximal. The low end stands for greater potency, the high end for weaker potency.
